Read-outs that look alike come from different tables or passages of the source.

In test [1] the target is T1, biotinylated human IL-17 (binding to IL17R/Fc) (Homo sapiens, UniProt Q16552).
T1 construct: purchased R&D Systems 317-ILB (IL-17, biotinylated); 177-IR (IL17R/Fc)
T1 sequence (Q16552 20-155 limits assumed): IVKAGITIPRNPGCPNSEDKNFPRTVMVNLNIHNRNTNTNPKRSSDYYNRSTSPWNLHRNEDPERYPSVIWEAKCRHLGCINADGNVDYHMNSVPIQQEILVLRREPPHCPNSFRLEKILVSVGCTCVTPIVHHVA
Kind of test: IL-17 competition ELISA II (captured IL17R/Fc, biotinylated IL-17). The procedure, abridged:
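Competition read-out: absorbance at 450 nm after streptavidin-HRP/TMB detection, fitted to a 4-parameter logistic model bounded by no-competitor and blank wells to give IC50. Compound was serially diluted 5-fold from 1 μM alongside 20 nM (stock) biotinylated IL-17 on IL17R/Fc (10 nM) captured via goat anti-human IgG, 30 min at room temperature.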

Test [2] has as its system IL-17A induced secretion of IL-6 in primary human RASF cells. The test is described as follows: Inhibition of IL17A induced secretion of IL6 in human rheumatoid arthritis synovial fibroblast (RASF) cells. The class given is cell-based. The procedure: This assay was used to determine the extent of inhibition of IL-17A induced secretion of IL-6 in primary human rheumatoid synovial fibroblast (RASF) cells by compounds of the invention. IL-17A is known to stimulate IL-6 production in RASF cells.
Low passage (passage 2-8) Primary human RASF cells (Asterand) were maintained in maintenance medium. Cells were detached from flasks by tryptic digestion and the cell density of the suspension determined. To each well of a 96 well culture plate was added 100 μL of seeding medium containing 50,000 cells/mL and the plate incubated overnight in a humidified 37° C., 5% CO2 incubator. The medium was replaced with fresh assay medium and cells were incubated for additional 5 hours in a humidified 37° C., 5% CO2 incubator prior to stimulation with recombinant human IL-17A (“rhIL-17A”). Prior to addition to cells, rhIL-17A (30 ng/mL) in assay medium was incubated with either DMSO alone, compounds, or anti-IL17 receptor antibody (3 μg/mL) for 1 hour at 37° C. The final concentration of DMSO in all samples was 0.25%. The final concentration of compounds varied from 0.03 μM to 25 μM.
Immediately before stimulation, cells were washed once with fresh assay medium. Then, 100 μL of the test samples was added in triplicate wells and the plates incubated for 20 hours in a humidified 37° C., 5% CO2 incubator. The assay medium from each well was collected and the IL-6 concentration in cell culture supernatants was determined by ELISA either immediately or after storage at −20° C.
A water-soluble tetrazolium salt (WST1) viability assay was immediately performed on the cells after the conditioned medium was collected using a WST1 reagent purchased from Roche. The concentration of IL-6 obtained from ELISA was normalized by the WST1 data.

The IC50 is the concentration needed to halve the response being measured. For the molecule `C[C@H]1NC(=O)[C@@H](Cc2ccc(NC(=O)[C@H](Cc3ccccc3Cl)NC(=O)Cc3ccc(F)cc3)cc2)NC(=O)CC2(CCCC2)CC(=O)N[C@H](C(=O)O)CCCCNC1=O` [Compound 529], the IC50 in test [1] was under 100 nM; in test [2] (Homo sapiens, Fibroblast), under 100 nM.
`C[C@H]1NC(=O)[C@@H](Cc2ccc(NC(=O)[C@H](Cc3ccccc3Cl)NC(=O)Cc3ccc(F)cc3)cc2)NC(=O)CC2(CCC2)CC(=O)NCCCCCNC1=O` [Compound 535]: the IC50 in test [1] was under 100 nM; in test [2] (Homo sapiens, Fibroblast), 1000 to 10000 nM.
Take `C[C@H]1NC(=O)[C@@H](Cc2ccc(NC(=O)[C@H](Cc3ccccc3Cl)NC(=O)C(F)(F)c3ccccc3)cc2)NC(=O)CC2(CCC2)CC(=O)NCCCCCNC1=O` [Compound 536]: the half-inhibitory concentration (IC50) in test [1] was under 100 nM; in test [2] (Homo sapiens, Fibroblast) it was 100 to 1000 nM.
With `C[C@H]1NC(=O)[C@@H](Cc2ccc(NC(=O)[C@H](Cc3ccccc3Cl)NC(=O)Cc3ccc(F)cc3)cc2)NC(=O)CC2(CCCC2)CC(=O)N(C)CCN(C)CCN(C)C1=O` [Compound 539], the IC50 in test [1] is under 100 nM; in test [2] (Homo sapiens, Fibroblast) it was 1000 to 10000 nM.
On the same counts, the results for `C[C@H]1NC(=O)[C@@H](Cc2ccc(NC(=O)[C@H](Cc3ccccc3Cl)NC(=O)C(F)(F)c3ccccc3)cc2)NC(=O)CC2(CCCC2)CC(=O)N(C)CCN(C)CCN(C)C1=O` [Compound 540] are under 100 nM and 1000 to 10000 nM.
`C[C@H]1NC(=O)[C@@H](Cc2ccc(NC(=O)[C@H](Cc3ccccc3Cl)NC(=O)C(=O)c3ccccc3)cc2)NC(=O)CC2(CCCC2)CC(=O)NCCCCCNC1=O` [Compound 549]: the IC50 in test [1] was under 100 nM; in test [2] (Homo sapiens, Fibroblast), under 100 nM.
Consider `C[C@H]1NC(=O)[C@@H](Cc2ccc(NC(=O)[C@H](Cc3ccccc3Cl)NC(=O)[C@@H](O)c3ccccc3)cc2)NC(=O)CC2(CCCC2)CC(=O)NCCCCCNC1=O` [Compound 550], for which the IC50 is under 100 nM in test [1] and 1000 to 10000 nM in test [2] (Homo sapiens, Fibroblast).
On to `C[C@H]1NC(=O)[C@@H](Cc2ccc(NC(=O)[C@H](Cc3ccccc3Cl)NC(=O)[C@H](O)c3ccccc3)cc2)NC(=O)CC2(CCCC2)CC(=O)NCCCCCNC1=O` [Compound 551], for which the IC50 in test [1] is under 100 nM; in test [2] (Homo sapiens, Fibroblast) it was 1000 to 10000 nM.
For the molecule `C[C@H]1NC(=O)[C@@H](Cc2ccc(NC(=O)[C@H](Cc3ccccc3Cl)NC(=O)Cc3ccc(N(C)C)cc3)cc2)NC(=O)CC2(CCCC2)CC(=O)NCCCCCNC1=O` [Compound 552], the IC50 in test [1] was under 100 nM; in test [2] (Homo sapiens, Fibroblast), under 100 nM.
Regarding `CN(C)c1ccc(CC(=O)N[C@@H](Cc2ccccc2Cl)C(=O)Nc2ccc(C[C@H]3NC(=O)CC4(CCCC4)CC(=O)NCCOCCOCCNC3=O)cc2)cc1` [Compound 553], the IC50 is under 100 nM in test [1] and 100 to 1000 nM in test [2] (Homo sapiens, Fibroblast).
On to `C[C@H]1NC(=O)[C@@H](Cc2ccc(NC(=O)[C@H](Cc3ccccc3Cl)Nc3nc4ccccc4o3)cc2)NC(=O)CC2(CCCC2)CC(=O)NCCCCCNC1=O` [Compound 555], for which the IC50 was under 100 nM in test [1] and under 100 nM in test [2] (Homo sapiens, Fibroblast).
Regarding `C[C@H]1NC(=O)[C@@H](Cc2ccc(NC(=O)[C@H](Cc3ccccc3Cl)NC(=O)C(F)(F)c3ccc(F)cc3)cc2)NC(=O)CC2(CCCC2)CC(=O)NCCCCCNC1=O` [Compound 560], the IC50 in test [1] is under 100 nM; in test [2] (Homo sapiens, Fibroblast) it was under 100 nM.
As to `CC1NC(=O)C(Cc2ccc(NC(=O)C(Cc3ccccc3Cl)NC(=O)Cc3ccc(F)cc3)cc2)NC(=O)C2(CCCC2)CCC(=O)NCCCCCNC1=O` (centres unmarked) [Compound 561], the IC50 was under 100 nM in test [1] and 1000 to 10000 nM in test [2].
On to `C[C@H]1NC(=O)[C@@H](Cc2ccc(NC(=O)[C@H](Cc3ccccc3Cl)NC(=O)Cc3ccc(N(C)C)cc3)cc2)NC(=O)CC2(CCCC2)CC(=O)N(C)CCN(C)CCN(C)C1=O` [Compound 562], for which the IC50 in test [1] was under 100 nM; in test [2] (Homo sapiens, Fibroblast), 1000 to 10000 nM.
As for `CC1NC(=O)C(Cc2ccc(NC(=O)C(Cc3ccccc3Cl)NC(=O)C(F)(F)c3ccccc3)cc2)NC(=O)CC2(CCCC2)CC(=O)N(C)CCCCCN(C)C1=O` (centres unmarked) [Compound 566], the IC50 in test [1] was under 100 nM; in test [2] it was 100 to 1000 nM.
On to `C[C@H]1NC(=O)[C@@H](Cc2ccc(NC(=O)[C@H](Cc3ccccc3Cl)NC(=O)C(F)(F)c3ccccc3)cc2)NC(=O)CC2(CCCC2)CC(=O)N(C)CCOCCN(C)C1=O` [Compound 567], for which the IC50 in test [1] is under 100 nM; in test [2] (Homo sapiens, Fibroblast) it was 100 to 1000 nM.
Consider `O=C1CC2(CCCC2)CC(=O)N[C@H](Cc2ccc(NC(=O)[C@H](Cc3ccccc3Cl)NC(=O)Oc3ccccc3)cc2)C(=O)NCCOCCOCCN1` [Compound 571], for which the IC50 in test [1] is under 100 nM; in test [2] (Homo sapiens, Fibroblast), 1000 to 10000 nM.
For `CN1CCOCCOCCNC(=O)[C@@H](Cc2ccc(NC(=O)[C@H](Cc3ccccc3Cl)NC(=O)Cc3ccc(N(C)C)cc3)cc2)NC(=O)CC2(CCCC2)CC1=O` [Compound 582] the same measures were under 100 nM and 1000 to 10000 nM.
As to `C[C@H]1NC(=O)[C@@H](Cc2ccc(NC(=O)[C@H](Cc3ccccc3Cl)NC(=O)Cc3ccc(N(C)C)cc3)cc2)NC(=O)CC2(CCCC2)CC(=O)N(C)CCOCCN(C)C1=O` [Compound 584], the IC50 in test [1] was under 100 nM; in test [2] (Homo sapiens, Fibroblast), 1000 to 10000 nM.
For `C[C@H]1NC(=O)[C@@H](Cc2ccc(NC(=O)[C@H](Cc3ccccc3Cl)NC(=O)Cc3ccc(F)cc3)cc2)NC(=O)CC2(CCCC2)NC(=O)CCNC(=O)CCNC1=O` [Compound 593] the same measures were under 100 nM and 100 to 1000 nM.
Consider `C[C@H]1NC(=O)[C@@H](Cc2ccc(NC(=O)[C@@H](NC(=O)C(F)(F)c3ccccc3)C3CCCCC3)cc2)NC(=O)CC2(CCCC2)CC(=O)N(C)CCCCCN(C)C1=O` [Compound 600], for which the IC50 in test [1] was under 100 nM; in test [2] (Homo sapiens, Fibroblast), 1000 to 10000 nM.
For `C[C@H]1NC(=O)[C@@H](Cc2ccc(NC(=O)[C@@H](NC(=O)Cc3ccc(N(C)C)cc3)C3CCCCC3)cc2)NC(=O)CC2(CCCC2)CC(=O)N(C)CCCCCN(C)C1=O` [Compound 601] the same measures were under 100 nM and 1000 to 10000 nM.
On the same counts, the results for `CN1CCCCCN(C)C(=O)[C@@H](CCC(N)=O)NC(=O)[C@@H](Cc2ccc(NC(=O)[C@@H](NC(=O)Cc3ccc(N(C)C)cc3)C3CCCCC3)cc2)NC(=O)CC2(CCCC2)CC1=O` [Compound 626] are under 100 nM and 100 to 1000 nM.
For `CN1CCCCCN(C)C(=O)[C@@H](Cc2ccncc2)NC(=O)[C@@H](Cc2ccc(NC(=O)[C@H](Cc3ccccc3Cl)NC(=O)C(F)(F)c3ccccc3)cc2)NC(=O)CC2(CCCC2)CC1=O` [Compound 627] the same measures were under 100 nM and 100 to 1000 nM.
`CC(O)[C@H]1NC(=O)[C@@H](Cc2ccc(NC(=O)[C@H](Cc3ccccc3Cl)NC(=O)C(F)(F)c3ccccc3)cc2)NC(=O)CC2(CCCC2)CC(=O)N(C)CCOCCN(C)C1=O` (some centres unmarked) [Compound 639]: the IC50 was under 100 nM in test [1] and 1000 to 10000 nM in test [2] (Homo sapiens, Fibroblast).
On the same counts, the results for `CN1CCCCCN(C)C(=O)[C@@H](CCC(N)=O)NC(=O)[C@@H](Cc2ccc(NC(=O)[C@H](Cc3ccccc3Cl)NC(=O)C(F)(F)c3ccccc3)cc2)NC(=O)CC2(CCCC2)CC1=O` [Compound 645] are under 100 nM and 100 to 1000 nM.
With `CN1CCCCCN(C)C(=O)[C@@H](CCC(N)=O)NC(=O)[C@@H](Cc2ccc(NC(=O)[C@@H](NC(=O)Cc3cccc(O)c3)C3CCCCC3)cc2)NC(=O)CC2(CCCC2)CC1=O` [Compound 646], the IC50 in test [1] was under 100 nM; in test [2] (Homo sapiens, Fibroblast), 1000 to 10000 nM.
As for `CN1CCCCCN(C)C(=O)[C@@H](CCC(N)=O)NC(=O)[C@@H](Cc2ccc(NC(=O)[C@@H](NC(=O)Cc3ccc(CO)cc3)C3CCCCC3)cc2)NC(=O)CC2(CCCC2)CC1=O` [Compound 653], the IC50 in test [1] is under 100 nM; in test [2] (Homo sapiens, Fibroblast), 1000 to 10000 nM.
On the same counts, the results for `NC(=O)C[C@H]1NC(=O)[C@@H](Cc2ccc(NC(=O)[C@H](Cc3ccccc3Cl)NC(=O)Cc3ccc(CO)cc3)cc2)NC(=O)CC2(CCCC2)CC(=O)N[C@H](C(=O)O)CCCCNC1=O` [Compound 656] are under 100 nM and under 100 nM.
Consider `O=C1CC2(CCCC2)CC(=O)N[C@H](Cc2ccc(NC(=O)[C@H](Cc3ccccc3Cl)NC(=O)Cc3ccc(CO)cc3)cc2)C(=O)N[C@H](Cc2cccnc2)C(=O)NCCCC[C@@H](C(=O)O)N1` [Compound 657], for which the IC50 in test [1] was under 100 nM; in test [2] (Homo sapiens, Fibroblast), under 100 nM.
`O=C1CC2(CCCC2)CC(=O)N[C@H](Cc2ccc(NC(=O)[C@H](Cc3ccccc3Cl)NC(=O)Cc3ccc(CO)cc3)cc2)C(=O)N[C@H](Cc2cscn2)C(=O)NCCCC[C@@H](C(=O)O)N1` [Compound 658]: the IC50 is under 100 nM in test [1] and under 100 nM in test [2] (Homo sapiens, Fibroblast).

These data come from patent US9284283B2, “Macrocyclic compounds for modulating IL-17” (ENSEMBLE THERAPEUTICS CORPORATION, priority 2012, dated 2016).
